The values that follow come from ChEMBL document CHEMBL4622971, “The Optimization of a Novel, Weak Bromo and Extra Terminal Domain (BET) Bromodomain Fragment Ligand to a Potent and Selective Second Bromodomain (BD2) Inhibitor” (J Med Chem, 2020).

A short description of data set [1]: Distribution coefficient, logD of the compound at pH 7.4 by chromatography. The data set is classed as physicochemical.
A short description of data set [2]: Volume of distribution at steady state in male Wistar Han rat at 1 mg/kg, iv measured up to 7 hrs by LC-MS/MS analysis. Conditions: in vivo, read-out: Vdss. It counts as ADME, organism-based.
A short description of data set [3]: Blood clearance in male Wistar Han rat at 1 mg/kg, iv measured up to 7 hrs by LC-MS/MS analysis. The data set is classed as ADME, organism-based. Conditions: whole blood.
Data set [4] in a line: Intrinsic clearance in dog hepatocytes at 0.5 uM incubated for 120 mins by LC-MS/MS analysis. The data set is classed as ADME, cell-based, Canis lupus familiaris, Hepatocyte. The conditions noted are these: 2 h.
Data set [5] in a line: Intrinsic clearance in human hepatocytes at 0.5 uM incubated for 120 mins by LC-MS/MS analysis. The data set is classed as ADME, cell-based, Hepatocyte. Conditions: 2 h.
Data set [6] in a line: Half life in male Wistar Han rat at 1 mg/kg, iv measured up to 7 hrs by LC-MS/MS analysis. It counts as ADME, organism-based. Conditions: in vivo.
The nature of data set [7]: Intrinsic clearance in rat hepatocytes at 0.5 uM incubated for 60 mins by LC-MS/MS analysis. It counts as ADME, cell-based, Hepatocyte. The conditions noted are these: 1 h.
Data set [8] can be described thus: Oral bioavailability in male Wistar Han rat at 3 mg/kg measured up to 7 hrs by LC-MS/MS analysis. Conditions: in vivo. It counts as ADME, organism-based.
Data set [9] can be described thus: Volume of distribution at steady state in male Wistar Han rat at […], iv measured up to 7 hrs by LC-MS/MS analysis. Conditions: in vivo, read-out: Vdss.
Data set [10] can be described thus: Half life in male Wistar Han rat at […], iv measured up to 7 hrs by LC-MS/MS analysis. The conditions noted are these: in vivo.
Data set [11] is described as follows: Blood clearance in male Wistar Han rat at […], iv measured up to 7 hrs by LC-MS/MS analysis. The conditions noted are these: whole blood.
Data set [12] in a line: Dose normalized AUC in male Wistar Han rat at 3 mg/kg, po measured up to 7 hrs by LC-MS/MS analysis. It counts as ADME, organism-based. The conditions noted are these: in vivo.
The nature of data set [13]: Blood clearance in beagle dog at 10.5 mg/kg, iv measured up to 7 hrs by LC-MS/MS analysis. Conditions: whole blood. The data set is classed as ADME, organism-based, Canis lupus familiaris.
Data set [14] is described as follows: Oral bioavailability in beagle dog at 10.5 mg/kg, iv measured up to 7 hrs by LC-MS/MS analysis. It counts as ADME, organism-based, Canis lupus familiaris. Conditions: in vivo.
The nature of data set [15]: Half life in beagle dog at 10.5 mg/kg, iv measured up to 7 hrs by LC-MS/MS analysis. The data set is classed as ADME, organism-based, Canis lupus familiaris. The conditions noted are these: in vivo.
Data set [16] in a line: Volume of distribution at steady state in beagle dog at 10.5 mg/kg, iv measured up to 7 hrs by LC-MS/MS analysis. The data set is classed as ADME, organism-based, Canis lupus familiaris. The conditions noted are these: in vivo, read-out: Vdss.
Data set [17] in a line: Intrinsic clearance in Wistar Han rat liver microsomes at 0.5 uM pre-incubated up to 45 mins before NADPH addition by LC-MS/MS analysis. It counts as ADME, Microsome. Background: Liver microsomes are vesicles of endoplasmic reticulum, rich in cytochrome P450 enzymes.
Data set [18] in a line: Intrinsic clearance in human liver microsomes at 0.5 uM pre-incubated up to 45 mins before NADPH addition by LC-MS/MS analysis. It counts as ADME, Microsome.

Turning to `CNC(=O)c1cc(C(=O)NC2CC2)cn(CC2CCOCC2)c1=O`, the chromatographic logD (in general, lipophilicity estimated from chromatographic retention) in data set [1] stood at 1.5.
With `CNC(=O)c1cc(C(=O)NC2CC2)cn(Cc2cccc3c2CCN3)c1=O`, the chromatographic logD in data set [1] was found to be 2.1. In [2], the Vd turned out to be 0.9 L/kg. The clearance (usually the rate of elimination divided by the concentration) in [3] was 16 mL/min/kg. For the same compound, the figures for the CLH in data set [4], in data set [5] and in data set [7] were less than 1.26 mL/min/g, less than 0.45 mL/min/g and less than 0.8 mL/min/g, respectively. Besides, the half-life (as a rule, the time in which the quantity being followed falls by half) in data set [6] was 36 min. Further, in data set [8], the bioavailability amounted to 53%.
For the compound `CNC(=O)c1cc(C(=O)NCCC2CCOCC2)cn(Cc2ccccc2)c1=O`, in data set [1], the chromatographic logD was 3.6.
Still for that read-out and setting: for `CNC(=O)c1cc(C(=O)NC2CCC2)cn(Cc2ccccc2)c1=O` the value was 3.8; for `CNC(=O)c1cc(C(=O)NC(C)C)cn(Cc2ccccc2)c1=O`, 3.6; for `CNC(=O)c1cc(C(=O)NC2CC2)cn(Cc2ccc(C)cc2)c1=O`, 3.5.
For the compound `CNC(=O)c1cc(C(=O)NC2CC2)cn(Cc2ccc3nc[nH]c3c2)c1=O`, the chromatographic logD in data set [1] turned out to be 1.2.
Same read-out and setting: for `CNC(=O)c1cc(C(=O)NC2CC2)cn(Cc2cccc(F)c2)c1=O` the value was 3.2.
As to `CNC(=O)c1cc(C(=O)NC2CC2)cn(Cc2cccc([C@@H](C)O)c2)c1=O`, the chromatographic logD in data set [1] came to 2.2. Moreover, the Vd in [2] stood at 1.7 L/kg. In [3], this compound yielded a clearance of 74 mL/min/kg. The values for the CLH in [4], in data set [5] and in data set [7] were less than 1.26 mL/min/g, less than 0.45 mL/min/g and 3 mL/min/g, respectively. Further, the half-life in data set [6] was 24 min.
On to `CNC(=O)c1cc(C(=O)NC2CC2)cn(Cc2cccc3[nH]c(C)nc23)c1=O`, for which the chromatographic logD in data set [1] was determined as 1.5.
On the same count and under the same terms, the value for `CNC(=O)c1cc(C(N)=O)cn(Cc2ccccc2)c1=O` was 2.
In turn, `CNC(=O)c1cc(C(=O)NC2CC2)cn(Cc2cccc3[nH]ncc23)c1=O` displayed a chromatographic logD in [1] of 1.5. For the same compound, the Vd in [2] is 1.2 L/kg. Also, the clearance in [3] is 42 mL/min/kg. Also, the CLH in [5] was less than 0.45 mL/min/g; in data set [7], less than 0.8 mL/min/g. For the same compound, the half-life in data set [6] is 24 min. The bioavailability in data set [8] came out at 14%.
As for `CNC(=O)c1cc(C(=O)NCCC2CCCNC2)cn(Cc2ccccc2)c1=O` (stereo not drawn), in data set [1], the chromatographic logD was 1.6.
On the same count and under the same terms, for `CNC(=O)c1cc(C(=O)NC)c(=O)n(Cc2ccccc2)c1` the value was 2.4; for `CNC(=O)c1cc(C(=O)NC2CC2)cn(Cc2cccc(CCN3CCOCC3)c2)c1=O`, 2.3.
Take `CNC(=O)c1cc(C(=O)NCC(C)C)cn(Cc2ccccc2)c1=O`: in data set [1], the chromatographic logD was 4.3.
In turn, `CNC(=O)c1cc(C(=O)NC2CC2)cn([C@H](C)c2ccccc2)c1=O` returned a chromatographic logD in data set [1] of 3.5. Moreover, the Vd at 7 h in data set [9] is 1.6 L/kg. The compound further gave a half-life at 7 h in data set [10] of 24 min. In data set [11], this compound returned a clearance at 7 h of 72 mL/min/kg. Also, the results for the CLH in data set [5] and in data set [7] were less than 0.87 mL/min/g and 1.5 mL/min/g, respectively.
The compound `CNC(=O)c1ccc(=O)n(Cc2ccccc2)c1` registered a chromatographic logD in data set [1] of 1.6.
In [1], `CNC(=O)c1cc(C(=O)NC2CC2)cn(Cc2ccc(F)cc2)c1=O` returned a chromatographic logD of 3.2.
In data set [1], `CNC(=O)c1cc(C(=O)NC2CC2)cn(Cc2cccc3[nH]ccc23)c1=O` had a chromatographic logD of 2.9. For the same compound, the Vd in data set [2] came to 1.3 L/kg. Besides, in data set [3], the clearance turned out to be 23 mL/min/kg. Further, the values for the CLH in data set [4], in [5] and in [7] were less than 1.26 mL/min/g, less than 0.45 mL/min/g and 1.66 to 1.7 mL/min/g, respectively. In data set [12], the AUC/dose was 23.6 kg·min/L. The compound also showed a half-life in data set [6] of 48 min.
`CNC(=O)c1cc(C(=O)NCCOC)cn(Cc2ccccc2)c1=O` gave a chromatographic logD in data set [1] of 2.7.
Same read-out and setting: for `CNC(=O)c1cc(C(=O)NC2CC2)cn(Cc2cccc(C)c2)c1=O` the value was 3.6; for `CNC(=O)c1cc(C(=O)NCCC(C)C)cn(Cc2ccccc2)c1=O`, 4.8.
For `CNC(=O)c1cc(C(=O)NC2CC2)cn(Cc2ccccc2)c1=O` [GSK620], the chromatographic logD in data set [1] stood at 3.1. The Vd was 0.8 L/kg in data set [2] and 1 L/kg in data set [16]. In addition, the clearance in [3] came out at 12 mL/min/kg; in data set [13], 2 mL/min/kg. The values for the CLH in [4], in data set [5] and in data set [7] were less than 1.26 mL/min/g, less than 0.45 mL/min/g and 0.95 mL/min/g, respectively. Also, the bioavailability was 57% in [14] and 67% in [8]. For the same compound, the half-life is 342 min in data set [15] and 66 min in data set [6].
In data set [1], `CNC(=O)c1cc(C(=O)NCCCC2CNCCO2)cn(Cc2ccccc2)c1=O` (racemic) gave a chromatographic logD of 1.4.
Regarding `CNC(=O)c1cc(C(=O)NC2CC2)cn(Cc2cccc3occc23)c1=O`, the chromatographic logD in data set [1] was 3.4.
Same read-out and setting: the value for `CNC(=O)c1cc(C(=O)NC2CCC2)cn(Cc2ccccn2)c1=O` was 2.2; that for `CNC(=O)c1cc(C(=O)NC2CC2)c(C)n(Cc2ccccc2)c1=O` was 2.9; that for `CNC(=O)c1cc(C(=O)NC2CC2)cn(Cc2ccc(OC)cc2)c1=O` was 3.
For the compound `CNC(=O)c1cc(C(=O)NC2CC2)cn(CC2CCCCC2)c1=O`, the chromatographic logD in [1] stood at 4.
The same measure, in the same setting: for `CNC(=O)c1cc(C(=O)NCCO)cn(Cc2ccccc2)c1=O` the value was 1.9; for `CNC(=O)c1cc(C(=O)NC2CC2)cn(Cc2cccc3cc[nH]c23)c1=O`, 3.7.
As for `CNC(=O)c1cc(C(=O)NC2CC2)cn(CC2CCCOC2)c1=O` (racemic), the chromatographic logD in data set [1] was 2.
The same measure, in the same setting: the value for `CNC(=O)c1cc(C(=O)NC2CCC2)cn(Cc2cccc(NC)c2)c1=O` was 3.6; that for `CNC(=O)c1cc(C(=O)NC2CCC2)cn(Cc2ccncc2)c1=O` was 1.7.
Take `CCNC(=O)c1cc(C(=O)NC)c(=O)n(Cc2ccccc2)c1`: the chromatographic logD in [1] was 3. For the same compound, in data set [2], the Vd was found to be 0.8 L/kg. The compound further came in with a clearance in [3] of 12 mL/min/kg. In addition, the figures for the CLH in data set [4], in [5] and in [7] were less than 1.26 mL/min/g, less than 0.87 mL/min/g and less than 0.8 mL/min/g, respectively. This compound showed a half-life in [6] of 36 min. The bioavailability in [8] was 104%.
In the case of `CNC(=O)c1cc(C(=O)NC2CCOCC2)cn(Cc2ccccc2)c1=O`, the chromatographic logD in [1] was found to be 2.8.
On the same count and under the same terms, for `CNC(=O)c1cc(C(=O)NC2CC2)cn(Cc2cccc3cn[nH]c23)c1=O` the value was 2.2.
As for `CNC(=O)c1ccc(=O)n(Cc2cc(Br)ccc2F)c1`, the chromatographic logD in data set [1] stood at 2.6. Further, the values for the CLH in data set [17] and in [18] were 0.76 mL/min/g and 0.53 mL/min/g, respectively.
The compound `CNC(=O)c1cc(C(=O)NC2CC2)cn(Cc2ccccc2F)c1=O` yielded a chromatographic logD in data set [1] of 3.
The same measure, in the same setting: for `CNC(=O)c1cc(C(=O)NC2CCC2)cn(Cc2cccnc2)c1=O` the value was 1.8; for `CCNC(=O)c1cccn(Cc2ccccc2)c1=O`, 3.7.
In turn, `CNC(=O)c1cc(C(=O)NC2CC2)cn(Cc2cccc(OC)c2)c1=O` showed a chromatographic logD in [1] of 3.
The same measure, in the same setting: the value for `CNC(=O)c1cc(C(=O)NC2CC2)cn(Cc2nccc3[nH]ccc23)c1=O` was 1.7.
Same read-out and setting: the value for `CNC(=O)c1cccn(Cc2ccccc2)c1=O` was 3.
Compound `CNC(=O)c1cc(C(=O)NC2CC2)cn(Cc2cccc(C#N)c2)c1=O` registered a chromatographic logD in [1] of 2.6.
In [1], `CNC(=O)c1cc(C(=O)NC2CC2)cn(CC2CCCCO2)c1=O` (racemic) had a chromatographic logD of 2.6.
